Assay results taken from publication PMC5442318, “Hundreds of dual-stage antimalarial molecules discovered by a functional gametocyte screen” (Nature Communications, 2017).
Like-named read-outs stand apart in the source and are kept apart here.

What was measured:
[1] = system: HepG2 cells; test: HepG2 cytotoxicity assay; format: cell-based; conditions: mean
Method: After incubation, plates and CellTiter-Glo Reagent (G7571, Promega) were equilibrated at room temperature for 30 min before proceeding to develop the luminescent signal. Using a Multidrop combi dispenser, 25 μl per well of the signal developer were added to the plates and after 10 min at room temperature for stabilization, plates were read on the ViewLux system (Perkin Elmer).

[2] = system: P. falciparum stages IV–V gametocytes; test: Gametocytocidal ATP-depletion assay (gametocyte ATP bioluminescence); format: cell-based, Plasmodium falciparum
Method: In parallel, the set of confirmed hits from the Pf FGAA screen was cross-compared in the gametocyte ATP-depletion assay, at 2 μM single concentration (Supplementary Data 1). This assay monitors ATP levels as surrogate of gametocyte viability.
‘Viability' of mature gametocytes was determined using the gametocyte ATP bioluminiscence assay. Briefly, stages IV–V gametocyte cultures were double-purified by differential sedimentation followed by magnetic isolation. Then, parasites (50 μl per well containing 12,500 gametocytes) were added to compound pre-dispensed 384-well plates (781091, Greiner Bio-One) and incubated at 37 °C for 48 h (3% O2, 5% CO2 and 92% N2). BacTiter-Glo kit (G8231, Promega) was used to determine the ATP levels of ‘live' parasites according to the manufacturer's instructions. After reagent addition (50 μl per well), luminescence of the plates was measured using a microplate reader (HTS counter Victor, Wallac).

[3] = system: P. falciparum stage V female gametocytes; test: P. falciparum female gametocyte activation assay (Pf FGAA), 24 h or 48 h preincubation, Pfs25 expression readout; format: cell-based, Plasmodium falciparum NF54; conditions: mean, read-out: Gametocytes mean Pf FGAA IC50
Method: P. falciparum NF54 (originally isolated from an imported malaria case in the Netherlands in the 1980s; BEI Resources, cat. no. MRA-1000) asexual-stage culture was performed as described by Trager and Jensen[37]. Cultures synchronized at the ring stage were used to start gametocyte cultures (day 0) at 1% parasitaemia and 4% haematocrit in 200 ml final volume using culture bottles (Nalgene 3110-42, Thermo Scientific). Complete culture medium (RPMI 1640 supplemented with 25 mM HEPES, 50 μg ml^−1 hypoxanthine, 2 g l^−1 NaHCO3 and 10% pooled human male type A+ serum) was totally replaced daily for 14 days without fresh erythrocyte addition. Human serum was obtained from Interstate Blood Bank, A^+ serotype; no aspirin 2 h before drawing and no antimalarials 2 weeks before drawing. To ensure a stable temperature at 37 °C, which is crucial for gametocyte production and maturation, pre-warmed medium and a slide warmer (XH-2001, Premiere) were used. Under these conditions, parasitaemia reaches a peak of asexual stages on days 4–5, and the first gametocytes are differentiated in culture on day 6. Sexual-stage development was monitored microscopically by Giemsa-stained thin blood smears at day 7 (mainly asexual stages and stages I to III gametocytes) and day 14 (stages IV and V gametocytes).
Cultures showing mainly stage V gametocytes were purified by differential sedimentation as previously reported. The gametocyte concentration was adjusted to plate 8,000 gametocytes per well (100 μl per well) in 384-well poly-D-lysine coated plates (781946, Greiner Bio-One) containing the compounds to test. […] Female gametocyte activation was then triggered by temperature drop and addition of xanthurenic acid (D120804, Sigma) as previously described. To detect female gametes, monoclonal anti-Pfs25 antibody[38] 4B7 (BEI Resources (formerly MR4), cat. no. MRA-315) conjugated to the Cy3 fluorochrome (GE Healthcare) was added to ookinete medium (RPMI 1640 supplemented with 25 mM HEPES, 50 μg ml^−1 hypoxanthine, 2 g l^−1 NaHCO3, 100 μM xanthurenic acid and 20% human serum) at a final concentration of 0.5 μg ml^−1. Activated cultures were then kept at 26 °C for 24 h protected from light, and image acquisition was performed in the Opera High-Content Screening System (PerkinElmer). Using × 10 air objective, five images per well were taken using 532 nm excitation. Images were analysed with a Columbus image data storage and analysis system (PerkinElmer) based on a script specifically designed for this assay that considers size, roundness and intensity of fluorescence of the female activated gametocytes.
Compounds were dissolved in 100% DMSO and dispensed in the 384-well plates using an Echo-CRS liquid handler. Compounds were tested in 2–3 independent experiments. […] Based on that, Z′ factor was calculated for each plate and only those ones with values higher than 0.4 were considered acceptable for data analysis.
Assay performance statistics, such as signal to background ratio, Z′ and robust 3 s.d. activity cut-off were calculated using templates in ActivityBase XE (IDBS, Guilford, Surrey, UK). Hit population analysis and visualization were conducted using Spotfire DecisionSite (Spotfire, Inc., Somerville, MA, USA). The pIC50 (−log IC50) values were obtained using the ActivityBase XE nonlinear regression function in the full curve analysis bundle.

[4] = system: P. falciparum asexual blood stages; conditions: read-out: Pf Asexual blood stages XC50, cited from earlier work
[5] = TCAMS data, ref 1 (Gamo et al., 2010)
[6] = P. falciparum female gametocytes
[7] = TCAMS asexual blood stage data, ref 1 (Gamo, F. J. et al., Nature 465, 305-310, 2010)

Row | Structure (SMILES) | HepG2 cells mean TOX50 [1] [µM] | Gametocytes mean ATP inhibition at 2µM (%) [2] [%] | IC50 [3] [nM] | IC50 [4, 5] [nM] | HepG2 cells mean TOX50 ([1]; HepG2 cells) [µM] | Gametocytes mean ATP inhibition at 2µM [2] [%] | IC50 [3, 6] [nM] | IC50 [4, 7] [nM]
1 | Cl.Nc1c2c(nc3ccc(NC(=O)CCCCCCc4ccccc4)cc13)CCCC2 [TCMDC-139056] | 5.42 | -10.66 | 2380 | 250 |  |  |  | 
2 | CC(C)(C)c1ccc(CNC(=O)c2cc(CNC3CCNCC3)ccc2O)cc1 [TCMDC-140775] | 13.96 | -11.19 | 2000 | 710 |  |  |  | 
3 | COc1cc2nc(NCCCN3CCCCC3)nc(NCc3ccccc3)c2cc1OC [TCMDC-132012] |  |  |  |  | 6.84 | 19.39 | 900 | 1000
4 | Cc1c2ccncc2c(C)c2c1[nH]c1cc(Cc3ccccc3)c(O)cc12 [TCMDC-132053] |  |  |  |  | 1.23 | -3.89 | 1090 | 150
5 | CC(C)Oc1ccc2ccccc2c1CNCCCCCCNCc1c(OC(C)C)ccc2ccccc12.CS(=O)(=O)O [TCMDC-137965] | 1.91 | 37.88 | 950 | 610 |  |  |  | 
6 | CN1CCCC(CN2CCN(Cc3cccc(-c4ccc(-c5nc6cc(C(F)(F)F)ccc6[nH]5)cc4)c3)CC2)C1.O=C(O)C(F)(F)F (stereo not shown) [TCMDC-133882] |  |  |  |  | 4.07 | 1.53 | 1300 | 150
7 | Cc1ccccc1OCC(O)CNC1CCC(NCC(O)COc2ccccc2C)CC1 (stereo not shown) [TCMDC-125142] |  |  |  |  | 4.07 | 39.31 | 1110 | 1190
8 | CCc1c(CCNCCCCCNCCc2ccc(OC)c(OC)c2CC)ccc(OC)c1OC.Cl [TCMDC-132064] |  |  |  |  | 4.68 | 27.40 | 2050 | 1110
9 | COc1ccc(CNC2Cc3ccccc3C2)cc1-c1ccc(S(=O)(=O)NCCN2CCCC2)cc1.O=C(O)C(F)(F)F [TCMDC-132248] |  |  |  |  | 5.89 | 20.60 | 1990 | 580
10 | O=C(/C=C/c1ccc(Cl)c(Cl)c1)N1CCC(CN2CCC(c3c[nH]c4ccncc34)CC2)CC1 [TCMDC-140074] | 5.32 | -2.94 | 870 | 730 |  |  |  | 
11 | CC(C)(C)Nc1cc(C2CC2)nc(-c2ccccn2)n1 [TCMDC-124453] |  |  |  |  | >100 | 81.87 | 100 | 680
12 | Nc1nc(N)c2c(ccc3[nH]c(-c4ccccc4Cl)nc32)n1 [TCMDC-137840] | 2.32 | 22.85 | 4420 | 230 |  |  |  | 
13 | Cl.Clc1ccc(OCCC2CCN(CCCCCCCN3CCC(CCOc4ccc(Cl)c(Cl)c4)CC3)CC2)cc1Cl [TCMDC-138967] | 1.64 | 95.79 | 520 | 620 |  |  |  | 
14 | CNC(=S)NN=C(C)c1ccccn1 [TCMDC-123475] |  |  |  |  |  | 81.04 | 14 | 270
15 | Cc1cc(C(=O)Nc2nc(-c3ccccn3)nc3ccsc23)no1 [TCMDC-135243] |  |  |  |  |  | 53.53 | 350 | 810
16 | CCn1c(-c2nonc2N)nc2c(-c3cccc(NC(=O)NC45CC6CC(CC(C6)C4)C5)c3)ncc(OCCCN)c21.O=C(O)C(F)(F)F [TCMDC-136246] | 6.10 | -16.91 | 1360 |  |  |  |  | 
17 | CC(C)(C)c1ccc(C(=O)Nc2cccc(Nc3c(C(=O)NCc4cccc(C(F)(F)F)c4)cnc4c(O)cccc34)c2)cc1.O=C(O)C(F)(F)F [TCMDC-139610] |  | 83.54 | 3630 | 1090 |  |  |  | 
18 | CCN(CC)CC(O)CNc1c2ccc([N+](=O)[O-])cc2nc2cc(OC)c(OC)cc12.Cl (stereo not shown) [TCMDC-138079] |  | 44.60 | 3890 | 270 |  |  |  | 
19 | COc1ccc(CNC(=O)c2cnc3c(O)cccc3c2Nc2cccc(NC(=O)c3ccc(Cl)c(Cl)c3)c2)cc1.O=C(O)C(F)(F)F [TCMDC-139607] |  | 90.02 | 1600 | 600 |  |  |  | 
20 | NC(=Nc1nc(-c2ccccn2)cc2ccccc12)c1cccc(Cl)c1 [TCMDC-123745] |  |  |  |  |  | 49.04 | 50 | 310
21 | COc1ccc(CNC(=O)c2cnc3c(O)cccc3c2Nc2cccc(NC(=O)c3ccc(-c4ccccc4)cc3)c2)cc1.O=C(O)C(F)(F)F [TCMDC-139611] |  | 88.95 | 1820 | 940 |  |  |  | 
22 | c1ccc(-c2csc(Nc3nc4cc5c(cc4s3)OCO5)n2)nc1 [TCMDC-124550] |  |  |  |  |  | 56.70 | 32.3 | 580
23 | Cl.c1ccc2c(Nc3ccc(OCCOCCOc4ccc(Nc5c6ccccc6nc6ccccc56)cc4)cc3)c3ccccc3nc2c1 [TCMDC-137355] | 5.59 | -18.54 |  | 280 |  |  |  | 
24 | Cc1c(Cl)cccc1S(=O)(=O)Nc1ccc(CCN2CCC(N)CC2)cc1.Cl [TCMDC-134083] |  |  |  |  | 13.86 | -1.32 |  | 1460
25 | S=C(NN=Cc1ccccn1)NC1CC2C=CC1C2 (stereo not shown) [TCMDC-125752] |  |  |  |  |  | 74.38 | 15.3 | 720
26 | CC(=NNC(=S)NC(C)(C)C)c1ccccn1 [TCMDC-137783] |  | 84.85 | 40 | 160 |  |  |  | 
27 | Oc1c(C(Nc2nc3ccccc3s2)c2ccccc2)ccc2cccnc12 (stereo not shown) [TCMDC-125565] |  |  |  |  |  | 91.61 | 3030 | 650
28 | Cc1ccc(Nc2nc(-c3ccccn3)cs2)nc1 [TCMDC-125854] |  |  |  |  |  | 82.15 | 27.3 | 750
29 | CC(=NNC(S)=NCc1ccco1)c1ccccn1 [TCMDC-137906] |  | 77.01 | 20 | 250 |  |  |  | 
30 | CC(Cc1ccc(CNC(=O)NCc2ccc(CC(C)NCCc3cccc(Cl)c3)cc2)cc1)NCCc1cccc(Cl)c1 (stereo not shown) [TCMDC-139648] | 3.94 | 12.15 |  | 690 |  |  |  | 
